Tests used:
Assay in all cases: relative viability (nuclei count vs DMSO), 5 days (fraction); higher = more cells survive
Linifanib + Olaparib = compound: Cc1ccc(F)c(NC(=O)Nc2ccc(-c3cccc4[nH]nc(N)c34)cc2)c1 [Linifanib] + O=C(c1cc(Cc2n[nH]c(=O)c3ccccc23)ccc1F)N1CCN(C(=O)C2CC2)CC1 [Olaparib] (partner 8 µM)
How it was run: (§1)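 Values are medians from duplicate plates. Each reflects relative viability, defined as the nuclei count of treated wells over that of vehicle wells. Lung cancer cell lines in 1536-well plates were pin-tool dosed one day after seeding with one drug alone or with a fixed anchor-drug dose plus five library-drug doses (not always all listed) in √10 steps, then fixed, stained and imaged at 4× after 5 days.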

Linifanib + Decitabine = compound: Cc1ccc(F)c(NC(=O)Nc2ccc(-c3cccc4[nH]nc(N)c34)cc2)c1 [Linifanib] + Nc1ncn([C@H]2C[C@H](O)[C@@H](CO)O2)c(=O)n1 [Decitabine] (partner 2 µM)
How it was run: as §1

Linifanib + Vorinostat = compound: Cc1ccc(F)c(NC(=O)Nc2ccc(-c3cccc4[nH]nc(N)c34)cc2)c1 [Linifanib] + O=C(CCCCCCC(=O)Nc1ccccc1)NO [Vorinostat] (partner 1 µM)
How it was run: as §1

Linifanib + AZD7762 = compound: Cc1ccc(F)c(NC(=O)Nc2ccc(-c3cccc4[nH]nc(N)c34)cc2)c1 [Linifanib] + NC(=O)Nc1cc(-c2cccc(F)c2)sc1C(=O)N[C@H]1CCCNC1 [AZD7762] (partner 0.2 µM)
How it was run: as §1

Linifanib + Navitoclax = compound: Cc1ccc(F)c(NC(=O)Nc2ccc(-c3cccc4[nH]nc(N)c34)cc2)c1 [Linifanib] + CC1(C)CCC(c2ccc(Cl)cc2)=C(CN2CCN(c3ccc(C(=O)NS(=O)(=O)c4ccc(N[C@H](CCN5CCOCC5)CSc5ccccc5)c(S(=O)(=O)C(F)(F)F)c4)cc3)CC2)C1 [Navitoclax] (partner 0.5 µM)
How it was run: as §1

Linifanib + Bortezomib = compound: Cc1ccc(F)c(NC(=O)Nc2ccc(-c3cccc4[nH]nc(N)c34)cc2)c1 [Linifanib] + CC(C)C[C@H](NC(=O)[C@H](Cc1ccccc1)NC(=O)c1cnccn1)B(O)O [Bortezomib] (partner 0.002 µM)
How it was run: as §1

Cell Line | relative viability (Linifanib + Olaparib; first compound 0.03162 µM) | relative viability (Linifanib + Olaparib; first compound 0.1 µM) | relative viability (Linifanib + Olaparib; first compound 0.3162 µM) | relative viability (Linifanib + Decitabine; first compound 0.03162 µM) | relative viability (Linifanib + Decitabine; first compound 0.1 µM) | relative viability (Linifanib + Decitabine; first compound 0.3162 µM) | relative viability (Linifanib + Vorinostat; first compound 0.03162 µM) | relative viability (Linifanib + Vorinostat; first compound 0.1 µM) | relative viability (Linifanib + Vorinostat; first compound 0.3162 µM) | relative viability (Linifanib + AZD7762; first compound 0.03162 µM) | relative viability (Linifanib + AZD7762; first compound 0.1 µM) | relative viability (Linifanib + AZD7762; first compound 0.3162 µM) | relative viability (Linifanib + Navitoclax; first compound 0.03162 µM) | relative viability (Linifanib + Navitoclax; first compound 0.1 µM) | relative viability (Linifanib + Navitoclax; first compound 0.3162 µM) | relative viability (Linifanib + Bortezomib; first compound 0.03162 µM) | relative viability (Linifanib + Bortezomib; first compound 0.1 µM) | relative viability (Linifanib + Bortezomib; first compound 0.3162 µM)
NCI-H1355 | 0.768 | 0.832 | 0.726 | 0.352 | 0.387 | 0.338 | 0.647 | 0.68 | 0.682 | 0.648 | 0.765 | 0.792 | 0.891 | 0.953 | 0.963 | 1.23 | 1.26 | 1.26
NCI-H1437 | 0.631 | 0.653 | 0.603 | 0.62 | 0.573 | 0.571 | 0.851 | 0.918 | 0.819 | 1.01 | 1.22 | 1.13 | 1.1 | 1.12 | 1.07 | 0.644 | 0.688 | 0.491
NCI-H1651 | 0.181 | 0.202 | 0.195 | 0.616 | 0.592 | 0.517 | 0.688 | 0.561 | 0.573 | 0.428 | 0.483 | 0.544 | 0.91 | 1.24 | 0.999 | 0.967 | 0.934 | 0.895
NCI-H1666 | 0.809 | 0.716 | 0.766 | 0.856 | 0.691 | 0.698 | 0.996 | 1.01 | 0.97 | 0.941 | 0.854 | 0.833 | 0.982 | 0.948 | 1.17 | 0.892 | 0.756 | 0.643
NCI-H1734 | 0.591 | 0.68 | 0.597 | 0.493 | 0.514 | 0.508 | 0.815 | 0.849 | 0.83 | 0.564 | 0.591 | 0.538 | 0.851 | 0.808 | 0.789 | 1.04 | 1.15 | 0.93
NCI-H1755 | 0.875 | 0.903 | 0.835 | 0.696 | 0.731 | 0.698 | 0.761 | 0.765 | 0.892 | 0.457 | 0.505 | 0.495 | 0.931 | 1.06 | 0.949 | 1.04 | 0.965 | 0.916
NCI-H1915 | 0.264 | 0.26 | 0.255 | 0.286 | 0.247 | 0.257 | 0.549 | 0.482 | 0.504 | 0.743 | 0.701 | 0.681 | 0.78 | 0.821 | 0.788 | 1.01 | 0.937 | 0.98
NCI-H1975 | 0.797 | 0.881 | 0.796 | 0.384 | 0.446 | 0.413 | 0.649 | 0.735 | 0.697 | 0.688 | 0.706 | 0.618 | 1.05 | 1.22 | 1.08 | 0.504 | 0.376 | 0.389
